Where two headings read alike, the source gives them in different places.
Molecular target: T1, recombinant human NK3 receptor (Homo sapiens, UniProt P29371)
T1 construct: expressed in transfected cells; host or cells: HEK293 cells, transient expression; membrane preparation
T1 sequence (P29371 1-465): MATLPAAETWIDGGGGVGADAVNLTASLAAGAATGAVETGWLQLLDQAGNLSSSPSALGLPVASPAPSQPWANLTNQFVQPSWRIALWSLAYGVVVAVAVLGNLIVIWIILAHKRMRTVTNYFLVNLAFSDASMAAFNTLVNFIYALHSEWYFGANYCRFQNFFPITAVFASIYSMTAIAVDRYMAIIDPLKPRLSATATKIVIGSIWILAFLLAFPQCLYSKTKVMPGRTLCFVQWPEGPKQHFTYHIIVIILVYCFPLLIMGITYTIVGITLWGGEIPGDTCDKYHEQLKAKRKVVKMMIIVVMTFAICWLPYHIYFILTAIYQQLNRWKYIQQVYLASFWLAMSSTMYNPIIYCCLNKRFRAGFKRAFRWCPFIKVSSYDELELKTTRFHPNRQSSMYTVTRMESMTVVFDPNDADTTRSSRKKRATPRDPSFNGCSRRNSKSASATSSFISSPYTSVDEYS
Assay: [3H]SR142801 competition binding assay
Method: [^3H]SR142801 Competition Binding Assay
hNK3 receptor binding experiment were performed using [^3H]SR142801 (Catalog No. TRK1035, specific activity: 74.0 Ci/mmol, Amersham, GE Healthcare UK limited, Buckinghamshire, UK) and membrane isolated from HEK293 cells transiently expressing recombinant human NK3 receptor. After thawing, the membrane homogenates were centrifuged at 48,000×g for 10 min at 4° C., the pellets were resuspended in the 50 mM Tris-HCl, 4 mM MnCl2, 1 μM phosphoramidon, 0.1% BSA binding buffer at pH 7.4 to a final assay concentration of 5 μg protein/well. For inhibition experiments, membranes were incubated with [^3H]SR142801 at a concentration equal to KD value of radioligand and 10 concentrations of the inhibitory compound (0.0003-10 μM) (in a total reaction volume of 500 μl) for 75 min at room temperature (RT). At the end of the incubation, membranes were filtered onto unitfilter (96-well white microplate with bonded GF/C filter preincubated 1 h in 0.3% PEI+0.3% BSA, Packard BioScience, Meriden, Conn.) with a Filtermate 196 harvester (Packard BioScience) and washed 4 times with ice-cold 50 mM Tris-HCl, pH 7.4 buffer. Nonspecific binding was measured in the presence of 10 μM SB222200 for both radioligands. The radioactivity on the filter was counted (5 min) on a Packard Top-count microplate scintillation counter with quenching correction after addition of 45 μl of microscint 40 (Canberra Packard S. A., Zurich, Switzerland) and shaking for 1 h. Inhibition curves were fitted according to the Hill equation: y=100/(1+(x/IC50)^nH), where nH=slope factor using Excel-fit 4 software ([…]). IC50 values were derived from the inhibition curve and the affinity constant (IQ values were calculated using the Cheng-Prussoff equation Ki=IC50/(1+[L]/KD) where [L] is the concentration of radioligand and KD is its dissociation constant at the receptor, derived from the saturation isotherm. All experiments were performed in duplicate and the mean±standard error (SEM) of the individual Ki values was calculated.

[1] = [3H]SR142801, membranes of HEK293 cells transiently expressing recombinant human NK3 receptor, read-out: hNK3 Ki
[2] = representative compounds, [3H]SR142801, HEK293 membranes, human NK3 receptor, read-out: Ki NK3 h

`CCCN(C(C)=O)C1CCN(CCC(C)(C(=O)N[C@@H](CC)c2ccccc2)c2ccc(Cl)c(Cl)c2)CC1` (stereo partly drawn) [Example 164, 4-[4-(Acetyl-propyl-amino)-piperidin-1-yl]-2-(3,4-dichloro-phenyl)-2-methyl-N-((S)-1-phenyl-propyl)-butyramide] showed a Ki [1] of 0.8 nM and a Ki [2] of 0.8 nM.
Molecule `CN(Cc1ccc(C(F)(F)F)cc1)C(=O)C(C)(CCN1CCC(NS(C)(=O)=O)CC1)c1ccc(Cl)c(Cl)c1` (stereo not drawn) [Example 25, 2-(3,4-Dichloro-phenyl)-4-(4-methanesulfonyl-amino-piperidin-1-yl)-2,N-dimethyl-N-(4-trifluoromethyl-benzyl)-butyramide] has a Ki [1] of 28.7 nM.
`CC(=O)N(C1CC1)C1CCN(CCC(C)(C(=O)N[C@@H](CO)c2ccc(Cl)c(Cl)c2)c2ccc(Cl)c(Cl)c2)CC1` (single isomer, unassigned; diastereoisomer 1) [Example 144, 4-[4-(Acetyl-cyclopropyl-amino)-piperidin-1-yl]-2-(3,4-dichloro-phenyl)-N-[1-(3,4-dichloro-phenyl)-2-hydroxy-ethyl]-2-methyl-butyramide (diastereoisomer 1)] was tested, and the Ki [1] was 10.1 nM.
`CN(Cc1cccc(Cl)c1)C(=O)C(CCN1CCC(NS(C)(=O)=O)CC1)c1ccc(Cl)c(Cl)c1` (stereo not drawn) [Example 39, N-(3-Chloro-benzyl)-2-(3,4-dichloro-phenyl)-4-(4-methanesulfonyl-amino-piperidin-1-yl)-N-methyl-butyramide] gave a Ki [1] of 213 nM.
Work on `CN(Cc1ccc(Cl)cc1)C(=O)C(C)(CCN1CCC(NS(C)(=O)=O)CC1)c1ccc(Cl)c(Cl)c1` (stereo not drawn) [Example 26, N-(4-Chloro-benzyl)-2-(3,4-dichloro-phenyl)-4-(4-methanesulfonyl-amino-piperidin-1-yl)-2,N-dimethyl-butyramide] yielded a Ki [1] of 26.5 nM.
Molecule `CN(Cc1ccccc1Cl)C(=O)C(C)(CCN1CCC(N2CCCC2=O)CC1)c1ccc(Cl)c(Cl)c1` (stereo not drawn) [Example 90, N-(2-Chloro-benzyl)-2-(3,4-dichloro-phenyl)-2,N-dimethyl-4-[4-(2-oxo-pyrrolidin-1-yl)-piperidin-1-yl]-butyramide] has a Ki [1] of 2.5 nM and a Ki [2] of 2.5 nM.
`CN(Cc1ccc(C(F)(F)F)c(F)c1)C(=O)C(C)(CCN1CCC(NS(C)(=O)=O)CC1)c1ccc(Cl)c(Cl)c1` (single isomer, unassigned) [Example 123, (S or R)-2-(3,4-Dichloro-phenyl)-N-(3-fluoro-4-trifluoromethyl-benzyl)-4-(4-methanesulfonylamino-piperidin-1-yl)-2,N-dimethyl-butyramide] gave a Ki [1] of 800 nM.
`CC(=O)N(C)C1CCN(CCC(C)(C(=O)N(C)Cc2ccc(F)c(C(F)(F)F)c2)c2ccc(Cl)c(Cl)c2)CC1` (stereo not drawn) [Example 104, 4-[4-(Acetyl-methyl-amino)-piperidin-1-yl]-2-(3,4-dichloro-phenyl)-N-(4-fluoro-3-trifluoromethyl-benzyl)-2,N-dimethyl-butyramide] gave a Ki [1] of 2.3 nM and a Ki [2] of 2.3 nM.
In the case of `CCN(C1CCN(CCC(C)(C(=O)NCc2ccc(Cl)c(Cl)c2)c2ccc(Cl)c(Cl)c2)CC1)S(C)(=O)=O` (stereo not drawn) [Example 71, N-(3,4-Dichloro-benzyl)-2-(3,4-dichloro-phenyl)-4-[4-(ethyl-methanesulfonyl-amino)-piperidin-1-yl]-2-methyl-butyramide], the Ki [1] is reported as 2.8 nM and the Ki [2] is reported as 2.8 nM.
`CN(Cc1ccc(Cl)cc1)C(=O)C(CCN1CCC(N2CCCC2=O)CC1)c1ccc(F)cc1` (stereo not drawn) [Example 111, N-(4-Chloro-benzyl)-2-(4-fluoro-phenyl)-N-methyl-4-[4-(2-oxo-pyrrolidin-1-yl)-piperidin-1-yl]-butyramide] was tested, and the Ki [1] was 408 nM.
Work on `CCN(C1CCN(CCC(C)(C(=O)N(C)Cc2ccccc2Cl)c2ccc(Cl)c(Cl)c2)CC1)S(C)(=O)=O` (stereo not drawn) [Example 78, N-(2-Chloro-benzyl)-2-(3,4-dichloro-phenyl)-4-[4-(ethyl-methanesulfonyl-amino)-piperidin-1-yl]-2,N-dimethyl-butyramide] yielded a Ki [1] of 3.6 nM and a Ki [2] of 3.6 nM.
With `CC(CCN1CCC(NS(C)(=O)=O)CC1)(C(=O)NCc1ccc(Cl)c(C(F)(F)F)c1)c1ccc(Cl)c(Cl)c1` (stereo not drawn) [Example 24, N-(4-Chloro-3-trifluoromethyl-benzyl)-2-(3,4-dichloro-phenyl)-4-(4-methanesulfonyl-amino-piperidin-1-yl)-2-methyl-butyramide] the Ki [1] was 71.4 nM.
For `COc1ccc(C(NC(=O)C(C)(CCN2CCC(NS(C)(=O)=O)CC2)c2ccc(Cl)c(Cl)c2)C2CC2)cc1` (stereo not drawn) [Example 2, N-[Cyclopropyl-(4-methoxy-phenyl)-methyl]-2-(3,4-dichloro-phenyl)-4-(4-methanesulfonyl-amino-piperidin-1-yl)-2-methyl-butyramide], the Ki [1] was 703 nM.
Molecule `CN(Cc1ccc(Cl)c(Cl)c1)C(=O)C(C)(CCN1CCC(N2CCCC2=O)CC1)c1ccc(Cl)c(Cl)c1` (stereo not drawn) [Example 82, N-(3,4-Dichloro-benzyl)-2-(3,4-dichloro-phenyl)-2,N-dimethyl-4-[4-(2-oxo-pyrrolidin-1-yl)-piperidin-1-yl]-butyramide] has a Ki [1] of 1.2 nM and a Ki [2] of 1.2 nM.
For `CC(=O)N(C)C1CCN(CCC(C)(C(=O)NCc2ccc(C(F)(F)F)c(F)c2)c2ccc(Cl)c(Cl)c2)CC1` (stereo not drawn) [Example 99, 4-[4-(Acetyl-methyl-amino)-piperidin-1-yl]-2-(3,4-dichloro-phenyl)-N-(3-fluoro-4-trifluoromethyl-benzyl)-2-methyl-butyramide], the Ki [1] was 5.8 nM and the Ki [2] was 5.8 nM.
With `CC(=O)N(C1CC1)C1CCN(CCC(C)(C(=O)N[C@@H](CO)c2ccc(Cl)cc2)c2ccc(Cl)c(Cl)c2)CC1` (single isomer, unassigned; diastereoisomer 2) [Example 143, 4-[4-(Acetyl-cyclopropyl-amino)-piperidin-1-yl]-N-[1-(4-chloro-phenyl)-2-hydroxy-ethyl]-2-(3,4-dichloro-phenyl)-2-methyl-butyramide (diastereoisomer 2)] the Ki [1] was 87.7 nM.
In the case of `CN(Cc1ccc(C(F)(F)F)c(F)c1)C(=O)C(F)(CCN1CCC(N(C)S(C)(=O)=O)CC1)c1ccc(Cl)c(Cl)c1` (stereo not drawn) [Example 53, 2-(3,4-Dichloro-phenyl)-2-fluoro-N-(3-fluoro-4-trifluoromethyl-benzyl)-4-[4-(methanesulfonyl-methyl-amino)-piperidin-1-yl]-N-methyl-butyramide], the Ki [1] is reported as 18.3 nM.
`CN(Cc1ccc(F)c(C(F)(F)F)c1)C(=O)C(CCN1CCC(NS(C)(=O)=O)CC1)c1ccc(Cl)c(Cl)c1` (stereo not drawn) [Example 44, 2-(3,4-Dichloro-phenyl)-N-(4-fluoro-3-trifluoromethyl-benzyl)-4-(4-methanesulfonyl-amino-piperidin-1-yl)-N-methyl-butyramide] was tested, and the Ki [1] was 132 nM.
`CC(=O)NC1CCN(CCC(C)(C(=O)N[C@@H](CO)c2ccc(Cl)c(Cl)c2)c2ccc(Cl)c(Cl)c2)CC1` (single isomer, unassigned; diastereoisomer 1) [Example 158] was tested, and the Ki [1] was 34.6 nM.
In the case of `CC[C@@H](NC(=O)C(C)(CCN1CCC(N2CCCC2=O)CC1)c1ccc(Cl)c(Cl)c1)c1ccccc1` (stereo partly drawn) [Example 128, 2-(3,4-Dichloro-phenyl)-2-methyl-4-[4-(2-oxo-pyrrolidin-1-yl)-piperidin-1-yl]-N-((R)-1-phenyl-propyl)-butyramide], the Ki [1] is reported as 90.2 nM.
In the case of `CC[C@@H](NC(=O)C(C)(CCN1CCC(N(CCOC)C(C)=O)CC1)c1ccc(Cl)c(Cl)c1)c1ccccc1` (stereo partly drawn) [Example 153, 4-{4-[Acetyl-(2-methoxy-ethyl)-amino]-piperidin-1-yl}-2-(3,4-dichloro-phenyl)-2-methyl-N-((R)-1-phenyl-propyl)-butyramide], the Ki [1] is reported as 60.9 nM.
With `CN(Cc1ccc(C(F)(F)F)c(F)c1)C(=O)C(C)(CCN1CCC(N(C2CC2)S(C)(=O)=O)CC1)c1ccc(Cl)c(Cl)c1` (stereo not drawn) [Example 57, 4-[4-(Cyclopropyl-methanesulfonyl-amino)-piperidin-1-yl]-2-(3,4-dichloro-phenyl)-N-(3-fluoro-4-trifluoromethyl-benzyl)-2,N-dimethyl-butyramide] the Ki [1] was 5.9 nM and the Ki [2] was 5.9 nM.

— patent publication US20110021565A1, “PIPERIDINE DERIVATIVES AS NK3 ANTAGONISTS” (priority 2007, published 2011)
